Data taken from ChEMBL document CHEMBL5096159, “Annual review of LSD1/KDM1A inhibitors in 2020” (Eur J Med Chem, 2021).

Experiments:
[1] = target: T1, Lysine-specific histone demethylase 1A (Homo sapiens, UniProt O60341); experiment: Inhibition of LSD1 (unknown origin) by Spectra Max Paradigm Microplate Reader analysis
[2] = target: T1, Lysine-specific histone demethylase 1A; experiment: Inhibition of recombinant LSD1 (unknown origin) expressed in Escherichia coli BL21 using H3K4me2 as substrate preincubated for 10 mins followed by substrate addition and measured after 30 mins by fluorescence based analysis
[3] = Cytotoxicity against human GES1 cells assessed as cell viability measured after 72 hrs by MTT assay; format: toxicity, cell-based
[4] = target: T1, Lysine-specific histone demethylase 1A; experiment: Inhibition of recombinant LSD1 (unknown origin) using H3K4me2 as a substrate measured after 0.5 hrs by fluorescence based analysis
[5] = system: MGC-803; experiment: Antiproliferative activity against human MGC-803 cells assessed as reduction in cell viability after 72 hrs by MTT assay; format: functional, cell-based; conditions: MGC-803, 72 h
[6] = system: MDA-MB-231; experiment: Antiproliferative activity against human MDA-MB-231 cells assessed as reduction in cell viability after 24 hrs by MTT assay; format: functional, cell-based; conditions: MDA-MB-231, 24 h
[7] = system: BGC-823; experiment: Antiproliferative activity against human BGC-823 cells assessed as reduction in cell viability incubated for 5 days by MTS assay; format: functional, cell-based; conditions: BGC-823, 120 h

IC50 [1] [µM] | Compound | IC50 [2] [µM] | other results
16.4 | Cc1coc2c1C(=O)C(=O)c1c-2ccc2c(C)cccc12 [TANSHINONE I] | – | –
20.9 | O=C(/C=C/c1ccc(O)c(O)c1)O[C@H](Cc1ccc(O)c(O)c1)C(=O)O [ROSMARINIC ACID] | – | –

More lines, now with the values behind:

Compound | IC50 [1] [µM] | IC50 [2] [µM] | other results
Cc1cccc2c3c(ccc12)C1=C(C(=O)C3=O)[C@@H](C)CO1 [DIHYDROTANSHINONE I] | 15.8 | – | –
COc1cc2c(cc1O)CC[n+]1cc3c(OC)c(OC)ccc3cc1-2 [JATRORRHIZINE] | – | 1.55 | –
COc1ccc(-c2coc3cc(O)cc(O)c3c2=O)cc1 [BIOCHANIN] | – | – | IC50 at 72 h [3]: > 32 µM; IC50 [4]: 2950 nM; IC50 [5]: 6.77 µM
COc1ccc2cc3[n+](cc2c1OC)CCc1cc2c(cc1-3)OCO2 [BERBERINE] | – | 6.97 | –
COc1cc2c(cc1O)-c1cc3ccc(OC)c(OC)c3c[n+]1CC2 [COLUMBAMINE] | – | 0.47 | –
O=C(/C=C/c1ccc(O)c2c1[C@H](C(=O)O[C@H](Cc1ccc(O)c(O)c1)C(=O)O)[C@@H](c1ccc(O)c(O)c1)O2)O[C@H](Cc1ccc(O)c(O)c1)C(=O)O | 0.11 | – | IC50 [6]: 55 µM
COc1cc2c(cc1OC)-c1cc3ccc(OC)c(OC)c3c[n+]1CC2 [PALMITINE] | – | 12.2 | –
COc1cc(CNC(=O)CCCC/C=C/C(C)C)ccc1O [CAPSAICIN] | – | – | IC50 [7]: 4.66 µM
C[C@H]1COC2=C1C(=O)C(=O)c1c2ccc2c1CCCC2(C)C [CRYPTOTANSHINONE] | 9.02 | – | –
